Assay results reported in US20160199369A1, “Extruded Immediate Release Abuse Deterrent Pill” (priority 2013, published 2016).

Legend:
[1] = relative solubility, yes/no; cited from earlier work
[2] = General solubility of exemplary components; format: physicochemical; conditions: 200 proof ethanol, filtered through 0.22 micrometer PTFE filter
Text: The following table lists the relative solubility of exemplary components of a formulation. A number of different dyes are listed along with their solubility information taken from the various literature sources and tested experimentally (200 proof ethanol and filtered through a 0.22 micrometer PTFE filter).

Row | Compound | Alcohol Solubility (Literature) [1] | Water Solubility [1] | Alcohol Solubility (tested) [2]
1 | CCN(Cc1cccc(S(=O)(=O)[O-])c1)c1ccc(C(=C2C=CC(=[N+](CC)Cc3cccc(S(=O)(=O)[O-])c3)C=C2)c2ccccc2S(=O)(=O)[O-])cc1.[Na+].[Na+] [FD&C Blue #1] | Yes | Yes | 
2 | O=C1/C(=C2\Nc3ccc(S(=O)(=O)[O-])cc3C2=O)Nc2ccc(S(=O)(=O)[O-])cc21.[Na+].[Na+] [FD&C Blue #2] | Yes | Yes | Yes
3 | COc1cc(S(=O)(=O)[O-])c(C)cc1N=Nc1c(O)ccc2cc(S(=O)(=O)[O-])ccc12.[Na+].[Na+] [FD&C Red #40] | Yes | Yes | Yes
4 | O=C([O-])C1=NN(c2ccc(S(=O)(=O)[O-])cc2)C(=O)C1N=Nc1ccc(S(=O)(=O)[O-])cc1.[Na+].[Na+].[Na+] (stereo not shown) [FD&C Yellow #5] | Yes | Yes | Yes
5 | COc1ccc2c3c1O[C@H]1C(=O)CC[C@@]4(O)[C@@H](C2)N(C)CC[C@]314.Cl [Oxycodone HCl, reference compound] | Yes | Yes | 
